Read-outs that look alike come from different tables or passages of the source.
What was measured:
[1] = cited from earlier work
[2] = tested on: MeCP2-repressed (MR) long genes in MeCP2 knockdown primary cortical neurons; assay: Nanostring nCounter expression of MeCP2-repressed long genes in MeCP2 shRNA knockdown primary cortical neurons treated with topotecan; assay type: cell-based, mouse
Method: Primary cortical neurons were prepared from E16.5 mouse embryos and cultured as described by Kim et al. For lentiviral-mediated shRNA knockdown, virus was prepared as described in Tiscornia et al.^48 using the MeCP2 shRNA and control shRNA plasmids previously validated in Zhou et al.^49. Virus was concentrated and titrated using the GFP signal expressed from IRES GFP in the virus. After one day in vitro (DIV), cells were infected with lentivirus (knockdown or control) at an MOI of ˜5, such that >90% of cells were infected. […] RNA samples were processed and analyzed using the Nanostring nCounter assay as described above, with the exception that 6 control genes were used for normalization. […]
For non-amplification-based gene expression analysis, Nanostring nCounter reporter CodeSets were designed to detect candidate MeCP2-repressed genes in 250 ng of total RNA extracted from MeCP2 KO and R306C mice. […] Briefly, total RNA was incubated at 65° C. with reporter and capture probes in hybridization buffer overnight, and captured probes were purified and analyzed on the nCounter Digital Analyzer. […] Significant differences between wild-type and MeCP2 KO or MeCP2 R306C samples (p<0.01) were also detected by paired two-tailed t-test comparing the paired mean values for each gene (averaged across samples within each genotype) between genotypes

[3] = tested on: MeCP2 hemizygous male mice; assay: In vivo topotecan treatment by intracerebroventricular osmotic pump: survival and behavior score; design: species or system mouse; details: 25 μM topotecan in 28-day osmotic pump to right lateral ventricle, 8 week old mice, N=7-8
Method: MeCP2 hemizygous male mice at 8 weeks of age (Jackson Labs) were separated into two equal groups based weight. Using standard stereotaxic techniques, cannula (Alzet, Brain Infusion Kit 3) were guided to the right lateral ventricle (from bregma; A/P 1 mm, LV 1 mm) and connected to an osmotic pump (Alzet, 1004, 28-day release) that was implanted subcutaneously. The osmotic pumps had been previously loaded with either vehicle (50 mM tartaric acid) or 25 μM topotecan and primed at 37° C. for approximately 2 days prior to implantation. All mice survived surgery and the following postoperative day. Survival monitoring began on postoperative day 2 and behavioral scoring began on postoperative day 4. MeCP2 behavior was scored as previously reported by Guy et al. Science 2005. Briefly, 6 behavioral domains are monitored to capture the progression of the MeCP2 phenotype: locomotor activity, gait, hindlimb clasp, tremor, breathing, and overall condition. Each behavioral domain is scored as 0 (absence), 1 (mild to moderate), or 2 (severe), and summed to give the total behavioral score. Survival statistics: p=0.09; Mantel-Cox. Behavioral statistics: * p<0.05; 2-way ANOVA, Fisher's LSD. N=7-8.

[4] = tested on: MeCP2 knockdown primary cortical neurons; assay: Ribosomal RNA (Bioanalyzer 18S/28S) and total RNA content of MeCP2 knockdown neurons treated with topotecan; assay type: cell-based, mouse; details: 50 nM topotecan

In the case of `COc1cccc2c1C(=O)c1c(O)c3c(c(O)c1C2=O)C[C@@](O)(C(=O)CO)C[C@@H]3O[C@H]1C[C@H](N)[C@H](O)[C@H](C)O1` [doxorubicin], the “doxorubicin concentrations in the brain” value ([1]; injection of the drug alone or the uncoated nanoparticle) is given as “no detectable increase” and the “doxorubicin concentrations in the brain” value ([1]; nanoparticles overcoated with polysorbate 80, intravenous injection of 5 mg/kg) is given as “up to 6 μg/g”.
With `CC[C@@]1(O)C(=O)OCc2c1cc1n(c2=O)Cc2cc3c(CN(C)C)c(O)ccc3nc2-1` [topotecan, Topotecan] the “concentration of topotecan that most effectively reverses overexpression of long genes” value ([2]; MeCP2 knockdown cortical neurons) was 50 nM, the “reversal of long gene misregulation (up-regulation of long genes after MeCP2 knockdown)” value ([2]; cultured cortical neurons, MeCP2 RNAi knockdown, topotecan from DIV 4 to DIV 10) was “dose-dependent reversal of long gene misregulation” and the “Behavioral statistics, p (2-way ANOVA, Fisher's LSD), total behavioral score, topotecan versus vehicle” value [3] was under 0.05. The “Survival statistics, p (Mantel-Cox), topotecan versus vehicle” value [3] was 0.09 and the “effect on decreased ribosomal RNA content of neurons lacking MeCP2” value [4] was “partially reverses the decreased ribosomal RNA content”.

From patent US20180318285A1, “METHODS FOR TREATMENT OF AUTISM SPECTRUM DISORDERS” (PRESIDENT AND FELLOWS OF HARVARD COLLEGE, priority 2015, published 2018)
